Test results taken from US20210087184A1, “AMINO-BENZOISOTHIAZOLE AND AMINO-BENZOISOTHIADIAZOLE AMIDE COMPOUNDS” (Aerie Pharmaceuticals, Inc., priority 2018, published 2021).
Where a name gives a salt, the structure may show the parent alone.

Assay: Topical pharmaceutical composition administered to the eyes (Examples 246-253)
Type: in vivo
Settings: for intraocular pressure / neuroprotective agent: 0.50 wt % topical eye drop composition of Example 246
Procedure: Topical pharmaceutical compositions for lowering intraocular pressure are prepared by conventional methods and formulated as follows: […]
A compound according to this disclosure is used as the 6-aminobenzoisothiazole derivative. […]

[1] = 0.50 wt % topical eye drop composition of Example 246, twice per day

Question: For `Cl.Cl.NCC(C(=O)Nc1ccc2cnsc2c1F)c1ccsc1` (stereo not drawn) [3-amino-N-(7-fluoro-benzoisothiazol-6-yl)-2-(thiophen-3-yl)propanamide dihydrochloride], which intraocular pressure is on record?
Answer: substantially decreases

Question: What about the neuroprotective agent of the same compound?
Answer: serves as a neuroprotective agent

Question: Which results are given for `NC(CC(=O)Nc1ccc2cnsc2c1)c1ccsc1` (stereo not drawn) [Example E6, 3-amino-N-(benzoisothiazol-6-yl)-3-(thiophen-3-yl)propanamide dihydrochloride]?
Answer: intraocular pressure: substantially decreases; neuroprotective agent: serves as a neuroprotective agent

Question: With `CN(C)CC(C(=O)Nc1ccc2cnsc2c1)c1ccsc1` (stereo not drawn) [Example E44, 3-(dimethylamino)-N-(benzoisothiazol-6-yl)-2-(thiophen-3-yl)propanamide dihydrochloride] as the compound, how does the “hyperemia, redness and ocular irritation” value (0.50 wt % topical eye drop composition of Example 246, as needed) read?
Answer: substantially decreases

Question: Which intraocular pressure does the source give for `NCC(C(=O)Nc1ccc2cnsc2c1)c1ccsc1` (stereo not drawn) [Example E49, 3-amino-N-(benzoisothiazol-6-yl)-2-(thiophen-3-yl)propanamide dihydrochloride] here?
Answer: substantially decreases

Question: Which intraocular pressure does the source give for `O=C(NCc1ccccn1)c1ccc([C@H]2C[C@@H]2C(=O)Nc2ccc3cnsc3c2)cc1` [Example E150, 4-((1S,2S)-2-(benzoisothiazol-6-ylcarbamoyl)cyclopropyl)-N-(pyridin-2-ylmethyl)benzamide] here?
Answer: substantially decreases

Question: What about the allergic symptoms [1] of the same compound?
Answer: substantially decreases

Question: And the dry eye syndrome [1]?
Answer: relieves
